Experimental data reported in ChEMBL document CHEMBL3600352, “Design, synthesis and biological evaluation of isoquinoline-based derivatives as novel histone deacetylase inhibitors” (Bioorg Med Chem, 2015).

Key:
[1] = system: HepG2; experiment: Cytotoxicity against human HepG2 cells assessed as cell viability after 72 hrs by CCK8 assay; format: functional, cell-based; conditions: HepG2, 72 h
[2] = biological target: Histone deacetylase 3 (Homo sapiens, UniProt O15379); experiment: Inhibition of recombinant His6-tagged GST-fused human HDAC3 expressed in baculovirus infected insect High5 cells using Ac-Lys-Tyr-Lys(epsilon-acetyl)-AMC as substrate after 24 hrs
Chain of Histone deacetylase 3 (O15379 whole entry, the tested form may be a part): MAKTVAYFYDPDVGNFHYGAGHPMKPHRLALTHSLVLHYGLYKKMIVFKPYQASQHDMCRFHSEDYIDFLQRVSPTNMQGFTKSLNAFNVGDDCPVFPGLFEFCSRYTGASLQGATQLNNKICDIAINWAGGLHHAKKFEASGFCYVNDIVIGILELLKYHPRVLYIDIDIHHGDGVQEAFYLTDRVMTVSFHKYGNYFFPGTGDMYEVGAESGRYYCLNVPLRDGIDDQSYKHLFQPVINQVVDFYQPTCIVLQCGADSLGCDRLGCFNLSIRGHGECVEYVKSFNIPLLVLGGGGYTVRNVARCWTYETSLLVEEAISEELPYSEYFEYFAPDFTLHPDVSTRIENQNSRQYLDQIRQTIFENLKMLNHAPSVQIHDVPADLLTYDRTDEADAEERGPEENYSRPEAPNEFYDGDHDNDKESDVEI

[3] = system: RPMI-8226; experiment: Cytotoxicity against human RPMI8226 cells assessed as cell viability after 72 hrs by CCK8 assay; format: functional, cell-based; conditions: RPMI-8226, 72 h
[4] = biological target: T1, Protein deacetylase HDAC6 (Homo sapiens, UniProt Q9UBN7); experiment: Inhibition of recombinant His6-tagged GST-fused human HDAC6 expressed in baculovirus infected insect High5 cells using Boc-Lys-(epsilon-acetyl)-AMC as substrate after 3 hrs
T1 sequence (Q9UBN7 whole entry): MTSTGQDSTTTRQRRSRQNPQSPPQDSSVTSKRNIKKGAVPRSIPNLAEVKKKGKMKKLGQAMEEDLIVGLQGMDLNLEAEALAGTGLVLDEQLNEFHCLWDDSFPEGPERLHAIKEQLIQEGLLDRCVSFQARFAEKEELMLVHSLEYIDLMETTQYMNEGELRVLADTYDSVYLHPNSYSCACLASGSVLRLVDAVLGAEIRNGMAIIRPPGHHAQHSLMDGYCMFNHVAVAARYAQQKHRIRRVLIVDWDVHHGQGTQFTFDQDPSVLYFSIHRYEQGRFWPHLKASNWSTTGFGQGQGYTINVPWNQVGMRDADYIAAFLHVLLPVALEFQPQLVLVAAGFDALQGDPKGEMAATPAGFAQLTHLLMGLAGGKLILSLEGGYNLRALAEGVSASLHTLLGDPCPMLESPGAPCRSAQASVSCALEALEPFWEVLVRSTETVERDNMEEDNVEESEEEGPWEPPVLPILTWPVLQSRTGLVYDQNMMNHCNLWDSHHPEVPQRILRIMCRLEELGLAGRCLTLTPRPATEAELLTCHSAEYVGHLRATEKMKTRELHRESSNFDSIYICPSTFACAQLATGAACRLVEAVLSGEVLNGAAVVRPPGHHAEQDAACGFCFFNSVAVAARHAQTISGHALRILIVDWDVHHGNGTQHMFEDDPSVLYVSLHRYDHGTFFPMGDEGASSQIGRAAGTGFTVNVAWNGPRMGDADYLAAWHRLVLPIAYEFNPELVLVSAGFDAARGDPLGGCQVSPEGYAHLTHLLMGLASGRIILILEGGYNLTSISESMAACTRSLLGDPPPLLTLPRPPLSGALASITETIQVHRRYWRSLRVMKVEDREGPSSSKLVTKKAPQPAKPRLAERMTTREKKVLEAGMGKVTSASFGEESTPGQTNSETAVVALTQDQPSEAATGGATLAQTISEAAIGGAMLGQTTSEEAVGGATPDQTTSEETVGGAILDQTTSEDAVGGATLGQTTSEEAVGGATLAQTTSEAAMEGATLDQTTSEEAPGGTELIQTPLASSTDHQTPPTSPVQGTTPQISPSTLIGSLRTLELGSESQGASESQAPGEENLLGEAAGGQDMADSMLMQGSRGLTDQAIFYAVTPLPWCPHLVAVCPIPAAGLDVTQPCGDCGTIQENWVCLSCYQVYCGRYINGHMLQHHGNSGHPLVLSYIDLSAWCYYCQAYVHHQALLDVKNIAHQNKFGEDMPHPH

[5] = biological target: Histone deacetylase 1 (Homo sapiens, UniProt Q13547); experiment: Inhibition of recombinant His6-tagged GST-fused human HDAC1 expressed in baculovirus infected insect High5 cells using Ac-Lys-Tyr-Lys(epsilon-acetyl)-AMC as substrate after 24 hrs
Chain of Histone deacetylase 1 (Q13547 whole entry, the tested form may be a part): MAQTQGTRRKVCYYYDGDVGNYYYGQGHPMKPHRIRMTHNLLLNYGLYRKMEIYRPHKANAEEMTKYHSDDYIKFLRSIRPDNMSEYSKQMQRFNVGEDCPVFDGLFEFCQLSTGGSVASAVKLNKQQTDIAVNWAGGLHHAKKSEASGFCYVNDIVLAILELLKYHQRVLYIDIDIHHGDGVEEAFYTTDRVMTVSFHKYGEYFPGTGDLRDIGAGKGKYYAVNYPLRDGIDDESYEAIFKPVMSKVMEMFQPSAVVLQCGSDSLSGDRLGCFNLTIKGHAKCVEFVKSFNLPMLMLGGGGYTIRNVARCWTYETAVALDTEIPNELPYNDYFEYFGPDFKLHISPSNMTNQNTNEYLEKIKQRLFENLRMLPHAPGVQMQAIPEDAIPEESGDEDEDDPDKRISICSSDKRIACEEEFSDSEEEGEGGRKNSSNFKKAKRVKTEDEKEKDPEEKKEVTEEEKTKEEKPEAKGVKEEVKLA

[6] = system: HCT-116; experiment: Cytotoxicity against human HCT116 cells assessed as cell viability after 72 hrs by CCK8 assay; format: functional, cell-based; conditions: HCT-116, 72 h
[7] = biological target: T2, hERG (KCNH2) (Homo sapiens, UniProt Q12809); experiment: Inhibition of human ERG overexpressed in CHO cells at 40 uM by Qpatch method relative to control; format: cell-based; conditions: CHO cells overexpressing human ERG
T2 sequence (Q12809 whole entry): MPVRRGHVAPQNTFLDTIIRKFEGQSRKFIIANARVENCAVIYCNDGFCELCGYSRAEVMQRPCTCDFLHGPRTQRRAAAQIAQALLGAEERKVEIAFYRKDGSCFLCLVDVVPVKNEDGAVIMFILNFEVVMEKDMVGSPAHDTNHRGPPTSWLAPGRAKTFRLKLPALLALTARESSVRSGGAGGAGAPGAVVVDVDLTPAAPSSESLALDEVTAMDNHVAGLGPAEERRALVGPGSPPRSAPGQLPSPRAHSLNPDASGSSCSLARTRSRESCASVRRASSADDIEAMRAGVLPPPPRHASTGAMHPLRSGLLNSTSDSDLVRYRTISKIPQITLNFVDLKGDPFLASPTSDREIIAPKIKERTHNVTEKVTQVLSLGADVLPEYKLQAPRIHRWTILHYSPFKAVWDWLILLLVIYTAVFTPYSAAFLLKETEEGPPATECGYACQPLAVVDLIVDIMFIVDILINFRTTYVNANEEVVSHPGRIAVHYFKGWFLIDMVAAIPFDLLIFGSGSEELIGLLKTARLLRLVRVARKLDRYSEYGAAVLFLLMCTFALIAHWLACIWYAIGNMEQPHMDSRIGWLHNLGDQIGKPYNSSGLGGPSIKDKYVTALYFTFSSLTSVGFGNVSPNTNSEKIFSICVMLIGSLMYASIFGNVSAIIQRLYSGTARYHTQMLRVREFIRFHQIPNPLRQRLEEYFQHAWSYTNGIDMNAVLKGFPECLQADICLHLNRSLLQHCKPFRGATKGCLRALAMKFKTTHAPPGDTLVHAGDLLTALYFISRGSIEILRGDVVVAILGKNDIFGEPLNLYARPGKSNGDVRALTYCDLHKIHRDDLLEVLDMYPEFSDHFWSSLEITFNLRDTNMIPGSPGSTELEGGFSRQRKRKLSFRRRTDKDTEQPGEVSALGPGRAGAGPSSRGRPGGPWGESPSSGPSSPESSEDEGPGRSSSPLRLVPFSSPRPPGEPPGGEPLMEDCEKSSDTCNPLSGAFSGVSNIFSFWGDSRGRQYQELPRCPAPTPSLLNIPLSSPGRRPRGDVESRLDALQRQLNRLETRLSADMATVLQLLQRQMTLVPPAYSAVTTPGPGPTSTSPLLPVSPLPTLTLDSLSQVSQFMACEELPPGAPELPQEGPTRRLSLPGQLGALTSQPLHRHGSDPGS

[8] = biological target: Voltage-gated inwardly rectifying potassium channel KCNH2 (Homo sapiens, UniProt Q12809); experiment: Inhibition of human ERG overexpressed in CHO cells by Qpatch method; format: cell-based
Chain of Voltage-gated inwardly rectifying potassium channel KCNH2 (Q12809 whole entry): as above

[9] = biological target: T2, hERG (KCNH2); experiment: Inhibition of human ERG overexpressed in CHO cells at 3 uM by Qpatch method relative to control; format: cell-based; conditions: CHO cells overexpressing human ERG
[10] = biological target: T3, Histone deacetylase (Homo sapiens) (UniProt Q13547+O15379+Q9UBN7+Q92769+Q9UQL6+Q8WUI4+Q9BY41+Q96DB2+P56524+Q9UKV0+Q969S8); experiment: Inhibition of HDAC in human RPMI8226 cells assessed as upregulation of acetylated histone H3 level after 24 hrs by Western blot analysis; format: cell-based; conditions: RPMI-8226
[11] = biological target: T3, Histone deacetylase (Homo sapiens); experiment: Inhibition of HDAC in human RPMI8226 cells assessed as upregulation of acetylated alpha-tubulin level after 24 hrs by Western blot analysis; format: cell-based; conditions: RPMI-8226

Structure (SMILES) | IC50 [2] [nM] | IC50 [4] [nM] | IC50 [5] [nM] | inhibition [10] | inhibition [11] | IC50 [1] [nM] | IC50 [3] [nM] | IC50 [6] [nM] | inhibition at 40 µM [7] [%] | IC50 [8] [nM] | inhibition at 3 µM [9] [%]
Cc1ccc(Nc2nccc3ccc(NC(=O)CCCCCCC(=O)NO)cc23)c(Cl)c1 | 21.2 | 29.9 | 19.5 | – | – | 10000 | 520 | 170 | – | – | –
COc1cc(N)c(Cl)cc1C(=O)NC1CCN(CCCOc2ccc(F)cc2)CC1OC (stereo not drawn) [CISAPRIDE] | – | – | – | – | – | – | – | – | – | – | 98.7
O=C(CCCCCCC(=O)Nc1ccc2ccnc(Nc3cccc(Cl)c3F)c2c1)NO | 21.6 | 7.96 | 17.5 | Dose-dependent effect | Dose-dependent effect | – | 720 | – | – | – | –
CC(C)CCn1ccc2ccc(NC(=O)CCCCCCC(=O)NO)cc2c1=O | 69.2 | 54.2 | 66 | – | – | – | 1800 | – | – | – | –
Cc1ccc(Nc2nccc3ccc(NC(=O)CCCCCCC(=O)NO)cc23)c(F)c1 | 39.7 | 40.9 | 35.4 | – | – | – | 2040 | – | – | – | –
O=C(CCCCCCC(=O)Nc1ccc2ccnc(N3CCOCC3)c2c1)NO | 40.8 | 29.5 | 45.9 | – | – | 14000 | 1330 | 280 | – | – | –
O=C(COc1ccc(C(=O)NO)cc1)Nc1ccc2ccnc(Nc3ccc4ccccc4c3)c2c1 | 276 | 545 | 272 | – | – | – | 7300 | – | – | – | –
CCN(CC)CCn1ccc2ccc(NC(=O)CCCCCCC(=O)NO)cc2c1=O | 74.4 | 38.7 | 69 | – | – | – | 2160 | – | – | – | –
COCCN(CCOC)c1nccc2ccc(NC(=O)CCCCCCC(=O)NO)cc12 | 192 | 148 | 263 | – | – | – | 7710 | – | – | – | –

Now from value to compound, other results behind:

IC50 [2] [nM] | IC50 [4] [nM] | IC50 [5] [nM] | inhibition [10] | inhibition [11] | Structure (SMILES) | IC50 [1] [nM] | IC50 [3] [nM] | IC50 [6] [nM] | inhibition at 40 µM [7] [%] | IC50 [8] [nM] | inhibition at 3 µM [9] [%]
5.42 | 5.15 | 5.75 | – | – | O=C(CCCCCCC(=O)Nc1ccc2ccnc(Nc3ccc4ccccc4c3)c2c1)NO | – | 740 | – | 17.5 | > 40000 | –
176 | 58.9 | 205 | – | – | Cc1ccc(Nc2nccc3ccc(NCc4ccc(/C=C/C(=O)NO)cc4)cc23)cc1 | – | 2040 | – | – | – | –
17.6 | 6.26 | 15.4 | – | – | Cc1ccc(Nc2nccc3ccc(NC(=O)CCCCCCC(=O)NO)cc23)c(Br)c1 | 8450 | 470 | 260 | – | – | –
14 | 13.6 | 27.9 | – | – | COCCCNc1nccc2ccc(NC(=O)CCCCCCC(=O)NO)cc12 | – | 2710 | – | – | – | –
92 | 32.1 | 65.8 | – | – | CCCCn1ccc2ccc(NC(=O)CCCCCCC(=O)NO)cc2c1=O | 18500 | 1880 | 1720 | – | – | –
4 | 3.77 | 4.17 | – | – | Cc1ccc(Nc2nccc3ccc(NC(=O)CCCCCCC(=O)NO)cc23)cc1 | – | 770 | – | – | – | –
264 | 352 | 323 | – | – | Cc1ccc(Nc2nccc3ccc(NCc4ccc(C(=O)NO)cc4)cc23)cc1 | – | > 20000 | – | – | – | –
18.9 | 11 | 18 | – | – | O=C(CCCCCCC(=O)Nc1ccc2ccnc(Nc3ccccc3F)c2c1)NO | – | 940 | – | – | – | –
36 | 25 | 41.6 | – | – | CC(C)N1CCN(c2nccc3ccc(NC(=O)CCCCCCC(=O)NO)cc23)CC1 | – | 1350 | – | – | – | –
108 | 100 | 98.1 | – | – | COc1ccc(Cn2ccc3ccc(NC(=O)CCCCCCC(=O)NO)cc3c2=O)c(OC)c1 | – | 2640 | – | – | – | –
475 | 286 | 571 | – | – | Cc1ccc(Nc2nccc3ccc(NCc4ccc(/C=C/C(=O)NO)cc4)cc23)c(Cl)c1 | – | 2710 | – | – | – | –
16.7 | 6.83 | 15.5 | Dose-dependent effect | Dose-dependent effect | O=C(CCCCCCC(=O)Nc1ccc2ccnc(Nc3ccc(Br)cc3F)c2c1)NO | 5870 | 460 | 190 | 43.7 | > 40000 | –
633 | 304 | 439 | – | – | Cc1ccc(Nc2nccc3ccc(NCc4ccc(/C=C/C(=O)NO)cc4)cc23)c(Br)c1 | – | 5220 | – | – | – | –
